Results as given in patent US10669272B2, “Substituted naphthyridinone compounds useful as T cell activators” (BRISTOL-MYERS SQUIBB COMPANY, priority 2018, dated 2020).
Where two headings read alike, the source gives them in different places.

Key:
[1] = target: T1, human DGKα (Homo sapiens, UniProt P23743); assay: DGKα LIPGLO assay (extruded liposome substrate), in vitro DGK inhibition; assay type: biochemical
T1 construct: TVMV protease cleavage site (C); Hexa-His (C); made in house; host or cells: Sf9 insect cells (baculovirus, Bac-to-Bac)
T1 sequence (P23743 with tags, fused parts or gaps): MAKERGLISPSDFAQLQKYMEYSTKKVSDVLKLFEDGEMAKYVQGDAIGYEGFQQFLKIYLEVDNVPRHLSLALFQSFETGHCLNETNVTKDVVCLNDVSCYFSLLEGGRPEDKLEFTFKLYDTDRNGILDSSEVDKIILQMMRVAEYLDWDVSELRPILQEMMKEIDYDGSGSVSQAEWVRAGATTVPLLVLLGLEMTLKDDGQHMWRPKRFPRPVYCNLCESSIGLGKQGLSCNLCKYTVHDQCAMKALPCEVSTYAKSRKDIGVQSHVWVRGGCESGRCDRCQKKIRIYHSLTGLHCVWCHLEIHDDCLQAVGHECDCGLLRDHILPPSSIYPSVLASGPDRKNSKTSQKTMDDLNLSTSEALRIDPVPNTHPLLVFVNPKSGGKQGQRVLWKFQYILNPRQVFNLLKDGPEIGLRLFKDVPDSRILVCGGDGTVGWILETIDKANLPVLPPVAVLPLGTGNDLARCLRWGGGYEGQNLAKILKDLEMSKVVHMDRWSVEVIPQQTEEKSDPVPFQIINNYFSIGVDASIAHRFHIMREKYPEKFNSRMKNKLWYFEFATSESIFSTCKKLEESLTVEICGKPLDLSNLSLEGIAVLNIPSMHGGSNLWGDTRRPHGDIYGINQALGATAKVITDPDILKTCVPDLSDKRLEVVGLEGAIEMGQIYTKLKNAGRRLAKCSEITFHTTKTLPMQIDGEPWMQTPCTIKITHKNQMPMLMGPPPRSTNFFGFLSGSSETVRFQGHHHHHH

[2] = tested on: Human venous whole blood; assay: Human whole blood IFN-γ assay; assay type: cell-based; conditions: human whole blood, read-out: INFg Whole Blood Normalized Agonist EC50;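 also: blood from healthy donors exposed to compound for 1 h before stimulation with anti-CD3 and anti-CD28 at 1 µg/mL each, IFN-γ quantified in supernatant by AlphaLISA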
Protocol: Human Whole Blood IFN-γ Assay
Human venous whole blood (22.5 μL per well), obtained from healthy donors, was pre-treated with compounds for one hour at 37° C. in a humidified 95% air/5% CO2 incubator. The blood was stimulated with 2.5 μL anti-human CD3 and anti-CD28 mAb at a final concentration of 1 μg/mL each for 24 hours at 37° C. IFN-γ in the supernatants was measured using AlphLISA kit (Cat # AL217).

[3] = target: T2, human DGKζ (Homo sapiens, UniProt Q13574); assay: DGKζ LIPGLO assay (extruded liposome substrate), in vitro DGK inhibition; assay type: biochemical; conditions: read-out: DGKz LIPGLO IC50
T2 construct: TVMV protease cleavage site (C); Hexa-His (C); made in house; host or cells: Sf9 insect cells (baculovirus, Bac-to-Bac)
T2 sequence (Q13574 with tags, fused parts or gaps isoform Q13574-4): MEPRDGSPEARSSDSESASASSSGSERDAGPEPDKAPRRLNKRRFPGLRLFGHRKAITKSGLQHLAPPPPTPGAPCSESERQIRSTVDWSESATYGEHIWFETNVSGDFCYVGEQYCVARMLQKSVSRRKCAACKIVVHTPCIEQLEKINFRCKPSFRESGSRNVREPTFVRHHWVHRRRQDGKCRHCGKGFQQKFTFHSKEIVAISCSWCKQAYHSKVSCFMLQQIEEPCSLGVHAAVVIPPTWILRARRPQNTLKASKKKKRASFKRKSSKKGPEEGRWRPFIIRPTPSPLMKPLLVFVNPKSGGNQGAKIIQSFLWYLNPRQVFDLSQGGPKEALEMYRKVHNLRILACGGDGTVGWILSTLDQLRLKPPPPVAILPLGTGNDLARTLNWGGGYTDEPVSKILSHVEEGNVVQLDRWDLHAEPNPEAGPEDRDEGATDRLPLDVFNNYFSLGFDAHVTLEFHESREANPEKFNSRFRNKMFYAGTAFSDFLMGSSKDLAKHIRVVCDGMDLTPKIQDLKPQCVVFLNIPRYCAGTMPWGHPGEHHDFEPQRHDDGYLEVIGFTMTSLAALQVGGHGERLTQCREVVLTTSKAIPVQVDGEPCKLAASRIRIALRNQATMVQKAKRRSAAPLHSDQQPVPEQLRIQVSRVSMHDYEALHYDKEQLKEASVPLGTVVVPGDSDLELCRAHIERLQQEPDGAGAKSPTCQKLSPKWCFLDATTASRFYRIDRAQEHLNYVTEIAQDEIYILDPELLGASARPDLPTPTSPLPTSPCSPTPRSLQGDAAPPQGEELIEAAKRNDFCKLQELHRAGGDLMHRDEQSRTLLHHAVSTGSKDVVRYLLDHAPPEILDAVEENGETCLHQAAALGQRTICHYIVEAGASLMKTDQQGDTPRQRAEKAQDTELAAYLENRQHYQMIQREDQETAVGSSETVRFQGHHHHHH

[4] = DGKα liposome (LIPGLO) assay, read-out: DGKa LIPGLO IC50
[5] = Homo sapiens, 24 h, anti-CD3 plus anti-CD28, 24 hours, 3 μM reference compound = 100% activation
[6] = anti-CD3 plus anti-CD28, 24 hours, 3 μM reference compound = 100% activation
[7] = liposome (LIPGLO) assay, read-out: DGKa LIPGLO IC50
[8] = normalized to 3 μM reference compound with anti-CD3 plus anti-CD28 as 100% activation
[9] = Homo sapiens, 24 h, normalized to 3 μM reference compound with anti-CD3 plus anti-CD28 as 100% activation

SMILES | IC50 [1, 4] | IC50 ([3]; DGKζ liposome (LIPGLO) assay) | IC50 [1, 7] | EC50 [2, 8] | IC50 ([3]; liposome (LIPGLO) assay) | further results
Cc1ccc(C(c2ccc(C)cc2)N2CCN(c3c(C#N)c(=O)n(C)c4ccc(C#N)nc34)C[C@H]2C)cc1 [Example 870] | 2.5 µM | 0.31 µM | – | – | – | EC50 [2, 5]: 1.4 µM
Cc1cccc(C(c2ccc(F)cc2)N2CCN(c3c(C#N)c(=O)n(C)c4ccc(C#N)nc34)C[C@H]2C)n1 (single isomer, unassigned) [Example 905] | 4.6 µM | 1.2 µM | – | – | – | EC50 [2, 5]: 1.3 µM
Cc1ccc(C(c2ccc(F)cc2)N2C[C@H](C)N(c3c(C#N)c(=O)n(C)c4ccc(C#N)nc34)C[C@H]2C)cc1 (stereo partly drawn) [Example 818] | 58 µM | 7.3 µM | – | – | – | EC50 [2, 6]: 4.2 µM
CC(c1ccc(OC(F)(F)F)cc1)N1C[C@H](C)N(c2cc(=O)n(C)c3ccc(C#N)nc23)C[C@H]1CN1CCN(C)CC1 (stereo partly drawn) [Example 1418] | – | – | 67 µM | 20 µM | 62 µM | –
CC[C@@H]1CN(c2cc(=O)n(C)c3ccc(C#N)nc23)[C@@H](C)CN1C(c1ccc(F)cc1)c1cccc(C(F)(F)F)n1 (stereo partly drawn) [Example 1113] | – | – | 0.62 µM | 1 µM | 0.31 µM | –
CC[C@H]1CN(C(C)c2ccc(OC(F)(F)F)cc2)[C@H](CC)CN1c1cc(=O)n(C)c2ccc(C#N)nc12 (single isomer, unassigned) [Example 1054] | – | – | 0.47 µM | 2.7 µM | 0.59 µM | –
CCOC[C@@H]1CN(c2cc(=O)n(C)c3ccc(C#N)nc23)[C@@H](C)CN1C(c1ccc(F)cc1)c1ccc(C(F)(F)F)cn1 (stereo partly drawn) [Example 1403] | – | – | 1.1 µM | 1.9 µM | 0.045 µM | –
C[C@@H]1CN(c2c(C#N)c(=O)n(C)c3ccc(C#N)nc23)CCN1C(c1ccc(F)cc1)c1cnn(C)c1 (stereo partly drawn) [Example 1016] | 3.3 µM | 7.5 µM | – | – | – | EC50 [2, 5]: 3.3 µM
CC1CN(C(c2ccc(F)cc2)c2nc(C(C)(C)C)no2)C(C)CN1c1c(C#N)c(=O)n(C)c2ccc(C#N)nc12 (single isomer, unassigned) [Example 863] | 0.53 µM | 0.19 µM | – | – | – | EC50 [2, 6]: 0.72 µM
CC(c1ccc(F)cn1)N1C[C@H](C)N(c2cc(=O)n(C)c3ccc(C#N)nc23)C[C@H]1C (single isomer, unassigned) [Example 641] | – | – | 1.7 µM | 5.9 µM | 15 µM | –
CC(c1ccc(Cl)cc1)N1C[C@H](C)N(c2c(C#N)c(=O)n(C)c3ccc(C#N)nc23)C[C@H]1C (single isomer, unassigned) [Example 791] | – | 5.7 µM | – | – | – | IC50 ([1]; DGKa LIPGLO IC50, DGKα liposome (LIPGLO) assay): 1.9 µM; EC50 [2, 6]: 1.3 µM
Cc1ccc(C(c2cccc(Cl)c2)N2CCN(c3c(C#N)c(=O)n(C)c4ccc(C#N)nc34)C[C@H]2C)nc1 (single isomer, unassigned) [Example 928] | 2.4 µM | 1.5 µM | – | – | – | EC50 [2, 5]: 1.7 µM
C[C@@H]1CN(c2c(C#N)c(=O)n(C)c3ccc(C#N)nc23)[C@@H](C)CN1C(c1ccccc1)c1ccc(Cl)cc1 (stereo partly drawn) [Example 834] | 22 µM | 6 µM | – | – | – | EC50 [2, 6]: 3.6 µM
CCC(c1cc(OC(F)(F)F)ccc1F)N1C[C@H](CC)N(c2cc(=O)n(C)c3ccc(C#N)nc23)C[C@H]1C (single isomer, unassigned) [Example 1381] | – | – | 19 µM | 20 µM | 2.1 µM | –
CC[C@H]1CN(C(c2ccc(Cl)cc2)c2ccc(F)cn2)[C@H](C)CN1c1cc(=O)n(C)c2ccc(C#N)nc12 (single isomer, unassigned) [Example 1130] | – | – | 0.17 µM | 0.28 µM | 0.43 µM | –
CC[C@H]1CN(C(C)c2ccc(OC(F)F)cc2)[C@H](C)CN1c1cc(=O)n(C)c2ccc(C#N)nc12 (single isomer, unassigned) [Example 1145] | – | – | 0.31 µM | 3.3 µM | 0.86 µM | –
C[C@@H]1CN(c2c(C#N)c(=O)n(C)c3ccc(C#N)nc23)CCN1C(c1ccc(Cl)cc1)c1ccc2c(c1)OC(F)(F)O2 (single isomer, unassigned) [Example 941] | 4.3 µM | 20 µM | – | – | – | EC50 [2, 5]: 20 µM
Cc1ccc(C(c2ccc(F)cc2)N2C[C@H](C)N(c3c(C#N)c(=O)n(C)c4ccc(C#N)nc34)C[C@H]2C)cc1 (stereo partly drawn) [Example 817] | 22 µM | 8.6 µM | – | – | – | EC50 [2, 6]: 1.1 µM
Cc1ccc(C(c2ncccc2F)N2CCN(c3c(C#N)c(=O)n(C)c4ccc(C#N)nc34)C[C@H]2C)cc1 (single isomer, unassigned) [Example 890] | 11 µM | 8.4 µM | – | – | – | EC50 [2, 5]: 6.6 µM

SMILES | IC50 [1, 4] | IC50 ([3]; DGKζ liposome (LIPGLO) assay) | IC50 [1, 7] | EC50 [2, 8] | IC50 ([3]; liposome (LIPGLO) assay) | further results
C[C@@H]1CN(c2cc(=O)n(C)c3ccc(C#N)nc23)[C@@H](C)CN1C(c1ccc(F)cc1)c1cncnc1 (single isomer, unassigned) [Example 394] | – | – | 42 µM | 18 µM | 49 µM | –
CC[C@H]1CN(C(C)c2cc(F)c(F)c(F)c2)[C@H](C)CN1c1cc(=O)n(C)c2ccc(C#N)nc12 (single isomer, unassigned) [Example 1383] | – | – | 0.97 µM | – | 0.48 µM | EC50 [2, 9]: 7 µM
C[C@@H]1CN(c2cc(=O)n(C)c3ccc(C#N)nc23)[C@@H](C)CN1C(c1ccc(F)cc1)c1csc(C2CC2)n1 (single isomer, unassigned) [Example 723] | 0.31 µM | 0.011 µM | – | – | – | EC50 [2, 5]: 0.45 µM
C[C@@H]1CN(c2c(C#N)c(=O)n(C)c3ccc(C#N)nc23)[C@@H](C)CN1C(c1ccc(F)cc1)c1cccc(C(F)(F)F)n1 (single isomer, unassigned) [Example 844] | 100 µM | 5.2 µM | – | – | – | EC50 [2, 5]: 2.7 µM
CC[C@@H]1CN(c2cc(=O)n(C)c3ccc(C#N)nc23)[C@@H](C)CN1C(c1cccc(F)c1)c1ccc(F)cn1 (single isomer, unassigned) [Example 1109] | – | – | 0.73 µM | – | 0.47 µM | EC50 [2, 9]: 0.92 µM
CCOC[C@@H]1CN(c2cc(=O)n(C)c3ccc(C#N)nc23)[C@@H](C)CN1C(c1ccc(F)cc1)c1ccc(C(F)(F)F)cn1 (stereo partly drawn) [Example 1404] | – | – | 0.9 µM | 0.9 µM | 0.05 µM | –
C[C@@H]1CN(c2cc(=O)n(C)c3ccc(C#N)nc23)[C@@H](C)CN1Cc1coc(-c2cccs2)n1 [Example 1434] | – | – | 2.1 µM | – | 0.96 µM | EC50 [2, 9]: 21 µM
C[C@@H]1CN(c2cc(=O)n(C)c3ccc(C#N)nc23)[C@@H](C)CN1Cc1ccc(C2(C#N)CC2)cc1 [Example 567] | – | – | 2.8 µM | – | 18 µM | EC50 [2, 9]: 20 µM
C[C@@H]1CN(c2c(C#N)c(=O)n(C)c3ccc(C#N)nc23)[C@@H](C)CN1C(c1ccc(F)cc1)c1ccccn1 (single isomer, unassigned) [Example 842] | 1.2 µM | 3.3 µM | – | – | – | EC50 [2, 6]: 20 µM
C[C@@H]1CN(c2cc(=O)n(C)c3ccc(C#N)nc23)[C@@H](C)CN1C(c1ccc(F)cc1)c1cccnn1 (single isomer, unassigned) [Example 383] | – | – | 5.6 µM | – | 13 µM | EC50 [2, 9]: 3.2 µM
CCC(c1ccc(C2CC2)cc1F)N1C[C@H](C)N(c2cc(=O)n(C)c3ccc(C#N)nc23)C[C@H]1C (stereo partly drawn) [Example 1218] | – | – | 0.067 µM | – | 0.069 µM | EC50 [2, 9]: 0.32 µM
C[C@@H]1CN(c2cc(=O)n(C)c3ccc(C#N)nc23)[C@@H](C)CN1C(Cc1nc(C2CC2)no1)c1ccc(F)cc1 (single isomer, unassigned) [Example 1327] | – | – | 0.2 µM | 0.18 µM | 0.29 µM | –
CC[C@H]1CN(C(C)c2ccc(C(F)(F)F)cc2)[C@H](C)CN1c1cc(=O)n(C)c2ccc(C#N)nc12 (single isomer, unassigned) [Example 1144] | – | – | 0.26 µM | 0.25 µM | 1.5 µM | –
COC[C@@H]1CN(c2cc(=O)n(C)c3ccc(C#N)nc23)[C@@H](C)CN1C(C)c1ccc(F)cc1 (single isomer, unassigned) [Example 1160] | – | – | 1.5 µM | – | 1.7 µM | EC50 [2, 9]: 1.1 µM
Cc1c(F)ccc(C(C)N2C[C@H](C)N(c3cc(=O)n(C)c4ccc(C#N)nc34)C[C@H]2C)c1Cl (single isomer, unassigned) [Example 433] | – | – | 79 µM | – | 0.24 µM | EC50 [2, 9]: 1.3 µM
CC[C@@H]1CN(c2cc(=O)n(C)c3ccc(C#N)nc23)[C@@H](C)CN1C(c1ccc(OC(F)(F)F)cc1)c1ccccn1 (single isomer, unassigned) [Example 340] | – | – | 0.32 µM | – | 0.22 µM | EC50 [2, 9]: 0.08 µM
CC(c1cccc(C(F)F)n1)N1C[C@H](C)N(c2cc(=O)n(C)c3ccc(C#N)nc23)C[C@H]1C (stereo partly drawn) [Example 1223] | – | – | 0.016 µM | 0.52 µM | 0.11 µM | –
CC[C@@H]1CN(c2cc(=O)n(C)c3ccc(C#N)nc23)[C@@H](C)CN1C(c1ccc(F)cc1)c1ccnc(C)n1 (stereo partly drawn) [Example 419, 8-((2S,5R)-5-ethyl-4-((4-fluorophenyl)(2-methylpyrimidin-4-yl)methyl)-2-methylpiperazin-1-yl)-5-methyl-6-oxo-5,6-dihydro-1,5-naphthyridine-2-carbonitrile] | – | – | 0.95 µM | 0.96 µM | 0.34 µM | –
C[C@@H]1CN(c2cc(=O)n(C)c3ccc(C#N)nc23)[C@@H](C)CN1C(c1ccc(F)cc1)c1nc(C2CN(C(=O)OC(C)(C)C)C2)no1 (single isomer, unassigned) [Example 757] | 0.023 µM | 0.16 µM | – | – | – | EC50 [2, 6]: 1 µM
